Values after ≈ are worked out from the molar mass of the structure shown.
Columns and labels:
[1] = molecular target: T1, Prostaglandin G/H synthase 1 (Homo sapiens, UniProt P23219); experiment: Inhibition of COX1 (unknown origin) expressed in HEK293 TRex cells assessed as reduction in PGE2 production using arachidonic acid as substrate preincubated for 60 mins followed by substrate addition for 1 hr in presence of 10% FBS by RapidFire High-Throughput Mass Spectrometry; type: ADME, cell-based, HEK293-T-REx
[2] = molecular target: T1, Prostaglandin G/H synthase 1; experiment: Inhibition of human recombinant COX-1 assessed as reduction in peroxidase activity using arachidonic acid as substrate preincubated for 60 mins followed by substrate addition for 2 secs by ADPH based fluorometric analysis; type: ADME
[3] = molecular target: T2, Prostaglandin G/H synthase 2 (Homo sapiens, UniProt P35354); experiment: Inhibition of human recombinant COX-2 assessed as reduction in peroxidase activity using arachidonic acid as substrate preincubated for 60 mins followed by substrate addition for 2 secs by ADPH based fluorometric analysis
T2 sequence (P35354 whole entry): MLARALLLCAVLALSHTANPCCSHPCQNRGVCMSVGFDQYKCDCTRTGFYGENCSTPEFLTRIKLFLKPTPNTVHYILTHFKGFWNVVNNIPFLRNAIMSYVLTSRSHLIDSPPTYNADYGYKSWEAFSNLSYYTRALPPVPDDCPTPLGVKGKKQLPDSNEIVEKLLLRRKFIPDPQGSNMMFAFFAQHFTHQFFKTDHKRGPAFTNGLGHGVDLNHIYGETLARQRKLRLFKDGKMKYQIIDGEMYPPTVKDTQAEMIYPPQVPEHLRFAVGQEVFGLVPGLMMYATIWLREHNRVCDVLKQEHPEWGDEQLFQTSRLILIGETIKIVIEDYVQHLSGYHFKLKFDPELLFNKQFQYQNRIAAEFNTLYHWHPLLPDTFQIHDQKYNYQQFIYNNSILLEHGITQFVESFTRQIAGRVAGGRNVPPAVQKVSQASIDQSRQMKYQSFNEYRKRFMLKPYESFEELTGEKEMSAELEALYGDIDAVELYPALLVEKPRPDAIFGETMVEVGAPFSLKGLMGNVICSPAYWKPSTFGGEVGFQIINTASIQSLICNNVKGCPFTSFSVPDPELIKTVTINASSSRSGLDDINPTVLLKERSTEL

[4] = molecular target: T2, Prostaglandin G/H synthase 2; experiment: Inhibition of COX2 (unknown origin) expressed in HEK293 TRex cells assessed as reduction in PGE2 production using arachidonic acid as substrate preincubated for 60 mins followed by substrate addition for 1 hr in presence of 10% FBS by RapidFire High-Throughput Mass Spectrometry; type: cell-based, HEK293-T-REx
[5] = Drug concentration in C57BL/6J mouse plasma at 10 mg/kg, po administered as cassette dose measured at 4 hrs by LC/MS/MS analysis; type: ADME, organism-based
[6] = Clearance in C57BL/6J mouse at 2 mg/kg, iv measured after 0.08 to 24 hrs; type: ADME, organism-based; settings: in vivo, time 0.08-24 hrs
[7] = Drug concentration in C57BL/6J mouse colon at 10 mg/kg, po administered as cassette dose measured at 4 hrs by LC/MS/MS analysis; type: ADME, organism-based; settings: read-out: Ct
[8] = Ratio of drug concentration in C57BL/6J mouse colon to plasma at 10 mg/kg, po measured after 4 hr by liquid chromatographic triple-quadrupole mass spectrometric method; type: ADME, organism-based; settings: for Ratio: other tissue, 10 mg/kg, 4 h; for Kp at 4 h: C57BL/6J, colon / plasma
[9] = Protein binding in human plasma assessed as unbound fraction; type: ADME, cell-free
[10] = Protein binding in human colon assessed as unbound fraction; type: ADME, tissue-based
[11] = molecular target: T2, Prostaglandin G/H synthase 2; experiment: Inhibition of COX2 in human whole blood assessed as reduction in LPS stimulated PGE2 production incubated for 1 hr by ELISA; type: tissue-based
[12] = molecular target: T3, Prostaglandin G/H synthase 2 (Homo sapiens) (UniProt P35354)
T3 sequence (whole entry): T2 sequence (P35354 whole entry)
Description: Protein occupancy at human recombinant COX-2 assessed as dissociation half life

[13] = Equilibrium solubility of compound in FASSIF at pH 6.5; type: physicochemical
[14] = molecular target: T1, Prostaglandin G/H synthase 1; experiment: Inhibition of COX1 in human whole blood assessed as reduction in calcium ionophore-stimulated TXB2 production incubated for 1 hr by ELISA; type: tissue-based
[15] = Drug concentration in C57BL/6J mouse portal vein plasma at 10 mg/kg, po administered as cassette dose measured at 4 hrs by LC/MS/MS analysis; type: ADME, organism-based
Mus musculus [16] = experiment: Antitumor activity in C57BL/6J mouse model of spontaneous GI-tract tumor Apc-min assessed as reduction in total ileum polyp area at 300 mg/kg, po administered as suspension for 10 to 12 weeks; type: functional; settings: time 10-12 weeks, read-out: TGI
[17] = molecular target: T2, Prostaglandin G/H synthase 2; experiment: Inhibition of human recombinant COX-2 using arachidonic acid as substrate preincubated for 60 mins followed by substrate addition for 2 secs by ADPH based fluorometric analysis
Mus musculus [18] = experiment: Chemo-protective activity in C57BL/6J mouse model of spontaneous GI-tract tumor Apc-min assessed as 18F-FDG uptake in ileum at 300 mg/kg, po incorporated into chow diet administered daily for 2 weeks and measured after 14 days by ex vivo PET imaging analysis relative to control; type: functional
[19] = Tmax in C57BL/6J mouse at 10 mg/kg, po administered as cassette dose measured at 4 hrs by liquid chromatographic triple-quadrupole mass spectrometric method; type: ADME, organism-based; settings: in vivo
[20] = Half life in mouse liver microsomes; type: ADME, Microsome
[21] = Half life in mouse hepatocytes; type: ADME, cell-based, Hepatocyte
[22] = Volume of distribution at steady state in C57BL/6J mouse at 2 mg/kg, iv measured after 0.08 to 24 hrs; type: ADME, organism-based; settings: C57BL/6J, in vivo, time 0.08-24 hrs, read-out: Vdss
[23] = Half life in human liver microsomes; type: ADME, Microsome
[24] = Half life in human hepatocytes; type: ADME, cell-based, Hepatocyte
[25] = Half life in C57BL/6J mouse at 2 mg/kg, iv measured after 0.08 to 24 hrs; type: ADME, organism-based; settings: C57BL/6J, in vivo, time 0.08-24 hrs
in vivo = settings: C57BL/6J, mouse, colon / portal vein plasma, po, 10 mg/kg
Description: Ratio of drug concentration in C57BL/6J mouse colon to portal vein plasma at 10 mg/kg, po measured after 4 hr by liquid chromatographic triple-quadrupole mass spectrometric method

Homo sapiens = species: Homo sapiens; experiment: Selectivity ratio of IC50 for COX1 in human whole blood assessed as reduction in calcium ionophore-stimulated TXB2 production to IC50 for COX2 in human whole blood assessed as reduction in LPS stimulated PGE2 production; type: tissue-based

T1 sequence (P23219 whole entry): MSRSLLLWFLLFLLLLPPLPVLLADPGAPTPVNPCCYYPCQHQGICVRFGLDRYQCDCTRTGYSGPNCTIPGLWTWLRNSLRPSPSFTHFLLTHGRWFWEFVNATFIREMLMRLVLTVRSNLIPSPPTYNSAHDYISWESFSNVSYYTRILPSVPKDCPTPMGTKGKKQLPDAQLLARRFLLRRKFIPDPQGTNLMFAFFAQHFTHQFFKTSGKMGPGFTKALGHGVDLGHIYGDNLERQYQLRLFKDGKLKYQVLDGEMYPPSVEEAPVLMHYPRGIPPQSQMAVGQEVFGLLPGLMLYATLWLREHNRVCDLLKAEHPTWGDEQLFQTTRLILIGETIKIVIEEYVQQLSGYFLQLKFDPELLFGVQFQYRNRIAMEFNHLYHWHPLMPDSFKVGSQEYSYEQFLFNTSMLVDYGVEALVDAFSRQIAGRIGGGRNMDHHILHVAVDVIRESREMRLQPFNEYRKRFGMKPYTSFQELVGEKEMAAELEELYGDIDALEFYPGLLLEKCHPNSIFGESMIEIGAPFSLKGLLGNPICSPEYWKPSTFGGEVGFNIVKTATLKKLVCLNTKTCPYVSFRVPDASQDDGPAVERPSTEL

SMILES: COCCOc1nc(OCC(C)(C)O)c(-c2ccc(S(C)(=O)=O)cc2)cc1CO
- IC50 [1]: > 50 µM
- IC50 [2]: > 50 µM
- IC50 [3]: 18.2 µM
- IC50 [4]: 2.95 µM

SMILES: CCCCOc1nc(OCC2(O)COC2)c(-c2ccc(S(C)(=O)=O)cc2)cc1CO
- concentration at 4 h [5]: 7.7 ng/mL
- IC50 [1]: > 50 µM
- clearance [6]: 68.6 mL/min/kg
- concentration at 4 h [7]: 11900 ng/g
- IC50 [4]: 1.32 µM
- Ratio [8]: 1596

SMILES: CCCCOc1nc(OCC(C)(C)O)c(-c2ccc(S(C)(=O)=O)cc2)cc1C(C)O (configuration not stated)
- concentration at 4 h [5]: 22.8 ng/mL
- IC50 [1]: 7.69 µM
- clearance [6]: 48.2 mL/min/kg
- concentration at 4 h [7]: 2810 ng/g
- IC50 [4]: 2.34 µM
- Kp at 4 h [8]: 134

SMILES: CCCCOc1nc(OCC2(C)COC2)c(-c2ccc(S(C)(=O)=O)cc2)cc1CO
- concentration at 4 h [5]: 2 ng/mL
- IC50 [1]: > 50 µM
- clearance [6]: 89.3 mL/min/kg
- concentration at 4 h [7]: 1850 ng/g
- IC50 [4]: 0.21 µM
- Ratio [8]: 1040

SMILES: Cc1cnc(OCC(C)(C)O)c(-c2ccc(S(C)(=O)=O)cc2)c1
- IC50 [1]: > 50 µM
- IC50 [2]: > 50 µM
- IC50 [3]: 6.36 µM
- IC50 [4]: 1.89 µM

SMILES: CC(C)(O)COc1ncc(CO)cc1-c1ccc(S(C)(=O)=O)cc1
- IC50 [1]: > 50 µM
- IC50 [2]: > 50 µM
- IC50 [3]: > 50 µM
- IC50 [4]: > 50 µM

SMILES: CCCCOc1nc(OCC(C)(C)O)c(-c2ccc(S(N)(=O)=O)cn2)cc1CO
- concentration at 4 h [5]: 5.5 ng/mL
- fraction unbound [9]: 0.002
- fraction unbound [10]: 0.075
- IC50 [11]: 7.23 µM
- IC50 [1]: > 50 µM
- T1/2 [12]: 23 h
- solubility thermodynamic [13]: 63.1 µM (≈ 26.8 µg/mL)
- IC50 [2]: > 50 µM
- IC50 [14]: > 60 µM
- concentration at 4 h [15]: 7.1 ng/mL
- IC50 [3]: 0.45 µM
- concentration at 4 h [7]: 12000 ng/g
- inhibition in vivo at 300 mg/kg (Mus musculus [16]): 25%
- Ki [17]: 0.019 µM
- Activity (Mus musculus [18]): 54.8%
- IC50 [4]: 0.23 µM
- Ratio [8]: 2179

SMILES: CC(C)(O)COc1ncc(C(F)(F)F)cc1-c1ccc(S(C)(=O)=O)cc1
- concentration at 4 h [5]: 9800 ng/mL
- Tmax [19]: 3 h
- IC50 [1]: > 50 µM
- half-life [20]: > 3.07 h
- half-life [21]: > 6.18 h
- IC50 [2]: > 50 µM
- Vd [22]: 1.55 L/kg
- clearance [6]: 0.54 mL/min/kg
- half-life [23]: > 3.07 h
- IC50 [3]: 0.39 µM
- half-life [24]: > 6.18 h
- concentration at 4 h [7]: 8400 ng/g
- half-life [25]: 38.5 h
- IC50 [4]: 1.5 µM
- Kp at 4 h [8]: 0.9

SMILES: CCCCOc1nc(OCC(C)(C)O)c(-c2ccc(S(C)(=O)=O)cc2)cc1C(C)(C)O
- concentration at 4 h [5]: 35.8 ng/mL
- IC50 [1]: > 50 µM
- clearance [6]: 58.8 mL/min/kg
- concentration at 4 h [7]: 85.8 ng/g
- IC50 [4]: 1.21 µM
- Kp at 4 h [8]: 2.5

SMILES: CCc1cnc(OCC(C)(C)O)c(-c2ccc(S(C)(=O)=O)cc2)c1
- concentration at 4 h [5]: 21.8 ng/mL
- Tmax [19]: 0.25 h
- IC50 [1]: > 50 µM
- half-life [20]: 0.22 h
- half-life [21]: 0.0533 h
- IC50 [2]: > 50 µM
- Vd [22]: 1.35 L/kg
- clearance [6]: 65.6 mL/min/kg
- half-life [23]: 1.15 h
- IC50 [3]: 3.24 µM
- half-life [24]: 1.4 h
- concentration at 4 h [7]: 51.6 ng/g
- half-life [25]: 0.32 h
- IC50 [4]: 0.95 µM
- Kp at 4 h [8]: 2.5

SMILES: CCCCOc1nc(OCC2(O)CCC2)c(-c2ccc(S(C)(=O)=O)cc2)cc1CO
- concentration at 4 h [5]: 9.9 ng/mL
- fraction unbound [9]: 0.005
- fraction unbound [10]: 0.055
- IC50 [11]: 0.146 µM
- IC50 [1]: 7.23 µM
- T1/2 [12]: 39 h
- solubility thermodynamic [13]: 56.1 µM (≈ 24.4 µg/mL)
- IC50 [2]: > 50 µM
- clearance [6]: 100 mL/min/kg
- IC50 [14]: > 60 µM
- concentration at 4 h [15]: 82.4 ng/mL
- Kp at 4 h (in vivo): 69.9
- IC50 [3]: 0.12 µM
- Ratio IC50 (Homo sapiens): > 200
- concentration at 4 h [7]: 5390 ng/g
- Ki [17]: 0.003 µM
- Activity (Mus musculus [18]): 61.2%
- IC50 [4]: 0.037 µM
- Kp at 4 h [8]: 545

SMILES: CCCCOc1nc(OCC(C)(C)O)c(-c2ccc(S(C)(=O)=O)cc2)cc1COCCO
- concentration at 4 h [5]: 28.7 ng/mL
- IC50 [1]: > 50 µM
- clearance [6]: 55.4 mL/min/kg
- concentration at 4 h [7]: 478 ng/g
- IC50 [4]: 0.54 µM
- Kp at 4 h [8]: 16.5

SMILES: COc1nc(OCC(C)(C)O)c(-c2ccc(S(C)(=O)=O)cc2)cc1CO
- IC50 [1]: > 50 µM
- IC50 [2]: > 50 µM
- IC50 [3]: 17.1 µM
- IC50 [4]: > 50 µM

SMILES: CCCCOc1nc(OCC(C)(C)O)c(-c2ccc(S(C)(=O)=O)cc2)cc1C(=O)O
- IC50 [3]: > 50 µM

SMILES: CC(C)Oc1nc(OCC(C)(C)O)c(-c2ccc(S(C)(=O)=O)cc2)cc1CO
- IC50 [1]: > 50 µM
- IC50 [2]: > 50 µM
- IC50 [3]: 4.1 µM
- IC50 [4]: > 50 µM

— ChEMBL document CHEMBL4808216, “Gut-Restricted Selective Cyclooxygenase-2 (COX-2) Inhibitors for Chemoprevention of Colorectal Cancer” (J Med Chem, 2021)
